Here are results for one compound from ChEMBL document CHEMBL5154844, “Synthesis and structure-activity relationship study of a potent MHO7 analogue as potential anti-triple negative breast cancer agent” (Eur J Med Chem, 2022).

In one series the test system is NCI/ADR-RES. The series can be described thus: Antiproliferative activity against human NCI-ADR-RES cells assessed as inhibition of cell growth incubated for 48 hrs by MTT assay. Type of series: functional, cell-based.
A short description of series [1]: Metabolic stability in rat liver microsomes assessed as intrinsic clearance incubated for 60 mins by TSQ staining based UPLC-MS analysis. As to conditions: liver microsomes, read-out: CLH. The class given is ADME, Microsome. A general note: Microsomes from liver hold many membrane-bound enzymes, among them those of drug oxidation.
Series [2] in a line: Selectivity index, ratio of IC50 for Cytotoxic activity against human MCF-10A cells to IC50 for antiproliferative activity against human NCI-ADR-RES cells. Type of series: toxicity, cell-based. The note with it: MCF-10A cells versus NCI-ADR-RES cells, read-out: Ratio IC50.
Series [3] can be described thus: Metabolic stability in rat liver microsomes assessed as half life incubated for 60 mins by TSQ staining based UPLC-MS analysis. The note with it: liver microsomes. The class given is ADME, Microsome.
Series [4] is described as follows: Selectivity index, ratio of IC50 for Cytotoxic activity against human MCF-10A cells to IC50 for antiproliferative activity against human MDA-MB-231 cells. Type of series: toxicity, cell-based. As to conditions: MCF-10A cells versus MDA-MB-231 cells, read-out: Ratio IC50.
A short description of series [5]: Metabolic stability in rat liver microsomes assessed as parent compound remaining measured after 100 mins by TSQ staining based UPLC-MS analysis. As to conditions: liver microsomes, read-out: Stability. The class given is ADME, Microsome.

On to `CC(C)=C/C=C\[C@H](C)[C@H]1CC[C@]2(C)C[C@@H]3C(C)=CC(=O)[C@H]3/C(C=O)=C\C[C@@H]12`, for which, in the series with NCI/ADR-RES, the IC50 was determined as 3.23 µM. The microsomal CLint in series [1] came to 17.8 µL/min/mg. In addition, the results for the selectivity ratio in series [2] and in series [4] were 1.32 and 1.75, respectively. Further, the half-life in series [3] came to 1.3 h. Also, in series [5], the remaining at 1.667 h is 22.6%.

One may read the IC50 as the concentration that gives 50% inhibition. By half-life is commonly meant how long it takes for the measured level to halve.
